Test results from paper PMC6058575, “Enhanced anti-hepatocarcinoma efficacy by GLUT1 targeting and cellular microenvironment-responsive PAMAM–camptothecin conjugate” (Drug Delivery, 2017).
Read-outs that look alike come from different tables or passages of the source.

Experiments:
[1] = tested on: HepG2 MCTS; test: Uptake in multicellular tumor spheroids (MCTS), CLSM; format: cell-based; conditions: 1 μM, 8 h, 100 µm depth
Experimental: Besides that, a multicellular tumor spheroids (MCTS) model, which was more suitable for mimicking the tumor microenvionment, was also employed as a supplement to monolayer cell model for better estimating in vitro targeting efficacy (Kunz-Schughart, [1999]). MCTS model was established by the liquid overlay method as described before (Friedrich et al., [2008]). Briefly, HepG2 cells were seeded in 96-well plates coated with 2% agarose at 2 × 10^3 cells per well and incubated for 5 d. […] Thereafter, MCTS were collected by centrifugation, washed with PBS, and observed by confocal laser scanning microscope (CLSM) (Olympus FV1000, Tokyo, Japan) at 100 µm depth of the MCTS (about the middle section of the sphere).

[2] = tested on: HepG2 cells; test: Subcellular localization by CLSM; format: cell-based; conditions: 1 μM CPT, 4 h
Experimental: HepG2 and L02 cells were seeded on cover glasses embedded in 24-well culture plates at densities of 5 × 10^4 cells/well. After 24 h, conjugates were added at a 1 μM CPT concentration and co-incubated with the cells for 4 h at 37 °C. Then, after the conjugate solutions were removed, the cells were treated with 50 nM MitoTracker deep red for 30 min and 10 mM Basic Orange 14 for 10 min to stain mitochondria and nuclei, respectively (Paleos et al., [2016]). Then, the cells were fixed with 4% paraformaldehyde, washed three times with ice-cold PBS (pH 7.4), and visualized using CLSM.

[3] = tested on: HepG2 cells; test: Cell-cycle analysis by flow cytometry (PI); format: cell-based; conditions: 1 μM CPT, 24 h, control cells 21.30%
Experimental: The cell-cycle percentage of HepG2 was analyzed using flow cytometer. […] After 24 h, the cells were trypsinized, washed with PBS, and fixed with 4 °C pre-cooling 70% ethanol overnight at −20 °C. […] Finally, the cells were stained with propidium iodide (PI) solution for 20 min and determined by flow cytometer.

[4] = tested on: HepG2 cells; test: Apoptosis assay, Annexin V-FITC/PI double staining; format: cell-based; conditions: 1 μM CPT, 24 h
Experimental: The apoptosis induction effect of conjugates on HepG2 cells was detected by Annexin V-FITC/PI double staining method. […] After 24 h, the cells were trypsinized (without EDTA), washed with PBS (containing 2% BSA), stained by 5 μL of Annexin V-FITC and 5 μL of 100 μg/mL PI, and re-suspended in 500 μL of binding buffer. After 15 min incubation, cells were determined by flow cytometer.

[5] = tested on: H22 tumor-bearing mice
Experimental: (§1) An H22 tumor-bearing mice model was established based on previously reported method (Li et al., [2014]). Ascitic fluid containing H22 cells was extracted and diluted with PBS (pH 7.0) to 1 × 10^7 cells/ml. The mice (20–22 g) were anesthetized with 5% chloral hydrate and subcutaneously injected with 0.2 ml of cell suspension for armpit tumor implantation. All animal studies were approved by the China Animal Care and Use Committee and carried out according to the Guide for the Care and Use of Laboratory Animals of Beijing University of Chinese Medicine.
(§2) The tumor-bearing mice were randomly divided into five groups (10 per group). The control group mice were administered saline. […] Body weights were recorded daily. At day 12, four mice of each group were sacrificed by carbon dioxide asphyxiation. Tumors, livers and spleens were collected and fixed with 10% paraformaldehyde for 48 h. These tissues were cut into […] sections and processed for H&E staining. The remaining […] in each group were also sacrificed, and the tumors were collected and weighed.

[6] = tested on: HepG2 cells (GLUT1-overexpressing); conditions: 1 μM CPT, flow cytometry
Experimental: HepG2 and L02 cells were seeded into 96-well culture plates at a density of 1.2 × 10^4 cells/well and incubated for 24 h. After the confluency and morphology were checked, 1 μM conjugates (calculated from CPT) were added to each well and co-incubated with the cells for different times (1, 4, and 8 h). […] The D-GLU was a substrate as well as inhibitor of GLUT1. Then, the GPCC conjugate was co-incubated with the cells for 4 h. At the end of the incubation time, the conjugate solutions were withdrawn from the wells, and the cells were washed three times with cold PBS. After fixation with 4% paraformaldehyde, the cells were qualitatively analyzed by fluorescence microscopy (IX71, Olympus, Tokyo, Japan). After trypsinization and re-suspension of the cells in PBS (pH 7.4), the fluorescence intensity was quantitatively analyzed by flow cytometry (BD FACSAria III, Piscataway, NJ).

[7] = Particle size by dynamic light scattering (DLS); format: physicochemical; conditions: conjugates at 10 mg/ml
Experimental: The particle sizes and zeta potential of different conjugates at 10 mg/ml were determined using a dynamic light scattering (DLS) particle size analyzer (Nicomp 380 Zeta Potential/Particle Sizer, Santa Barbara, CA). Following staining with 2% sodium phosphotungstate solution, the conjugate morphologies were observed using transmission electron microscopy (TEM) at an accelerating voltage of 100 kV (JEM 1400 JOEL, Akishima City, Tokyo Prefecture, Japan).

[8] = tested on: L02 cells; test: MTT cytotoxicity; format: cell-based; conditions: 24 h
Experimental: The cytotoxicity of different conjugates on HepG2 and L02 cells was determined using 3-(4,5-dimethyl-2-thiazolyl)-2,5-diphenyl-2-H-tetrazolium bromide (MTT) method. The cells were seeded in 96-well culture plates at a density of 5 × 10^3 cells/well. Then the cells were treated with conjugates and free CPT at CPT concentrations ranging from 3 nM to 20 μM at 37 °C for 24 h when 60–70% confluence was reached. After that, the drug solution was replaced with MTT at a concentration of 5 mg/mL, and co-incubated with cells for another 4 h. The supernatant was discarded and adding with 150 μL DMSO to dissolve the MTT-formazan. The absorbance at 492 nm was recorded using a microplate reader.

[9] = tested on: H22 tumor-bearing mice; test: In vivo and ex vivo imaging of tumor targeting; conditions: in vivo imaging, 1 mg/kg CPT i.v.
Experimental: as §1
Mice were intravenously injected with conjugates at 1 mg/kg CPT concentration. […] Afterward, the tumor-bearing mice were immediately sacrificed by carbon dioxide asphyxiation. Subsequently, major organs (such as tumor, liver, spleen, brain, heart, kidney, and lung) were harvested and visualized.

[10] = Pharmacokinetic study after intravenous administration; format: in vivo; conditions: rats; for maximum plasma drug concentration: 1.5 mg/kg CPT i.v., 5 min post administration
Experimental: The rats were fasted for 12 h with free access to water before the experiment. Briefly, 0.5 ml of blood was collected in centrifuge tubes at predefined times of 0.083, 0.33, 0.5, 1, 2, 4, 8, 12, and 24 h. Blood samples were centrifuged at 15,000 rpm for 15 min at 4 °C to isolate plasma fractions. Then, 100 μL of methanol was added to the plasma, and the mixture was extracted with 2 mL hexane and 1 mL dichloromethane. The mixture was vortexed for 10 min and centrifuged at 15,000 rpm for 15 min, and the supernatant was collected and dried using a stream of nitrogen gas. The resultant residue was redissolved in 200 μL methanol and stored at −20 °C until further analysis.

[11] = In vitro CPT release by dialysis in PBS with GSH; format: physicochemical; conditions: compared with MPCC and GPCC
Experimental: A dialysis method was used to determine the in vitro CPT release of conjugates. Conjugates at concentrations of 1 mg/ml were placed in dialysis bags (MWCO 3500 Da) and immersed in 50 ml PBS (pH 7.4) containing different concentrations of GSH (0 μM, 10 μM and 10 mM) to mimic various cellular microenvironment conditions. The drug release was conducted at 100 rpm and 37 °C. During dialysis, 1 ml aliquots were withdrawn from the release medium at predefined intervals, and 1 ml of fresh release medium was added to maintain a constant total volume. The CPT concentrations were determined by HPLC.

[12] = tested on: H22 tumor-bearing mice; test: Toxicity in the efficacy study (body weight, H&E staining); format: in vivo; conditions: for H&E histology of liver and spleen: 1 mg/kg CPT i.v., day 12
Experimental: as §2

[13] = 1.5 mg CPT/kg i.v., two-compartment model
[14] = rat, plasma, iv, 1.5 mg/kg, 1.5 mg CPT/kg i.v., two-compartment model

In the case of “Glucose–PEG–PAMAM-s-s–Camptothecin-Cy7 [GPCC]”, the “cellular uptake in MCTS” value [1] is reported as “obviously stronger cellular uptake than the MPCC conjugate”, the subcellular localization [2] is reported as “accumulated in HepG2 nuclei more than the MPCC conjugate” and the S phase percentage [3] is reported as 37.15%. For the same compound, the apoptosis induction effect [4] was “increased obviously”, the tumor inhibition ([5]; 1 mg/kg CPT i.v. on days 0, 2, 4, 6, 8, 10, versus CPT suspension and other conjugate groups, p < .05) was “significantly better tumor inhibition rates” and the “H&E histology of tumor tissue” value ([5]; 1 mg/kg CPT i.v., day 12) was “widespread necrosis in tumor tissues”. The tumor weight ([5]; 1 mg/kg CPT i.v., end of experiment, p < .05) was “significantly less than that of the MPCC conjugate” and the “cellular uptake relative to MPCC” value [6] was “approximately two-fold”.

With mPEG–PAMAM–CPT–Cy7 [MPCC] the “particle size (DLS)” value [7] was 19.6 nm, the cytotoxicity [8] was “lower than that of PCC” and the S phase percentage [3] was 32.94%. The “time of maximum distribution at tumor sites” value [9] was 4 h, the “AUC(0–t)” value [10, 13] was 4677 ± 654 ng·h/mL and the “AUC(0–∞)” value [10, 13] was 4895 ± 620 ng·h/mL. For the same compound, the CL [10, 13] was 5.17 ± 0.617 mL/min/kg, the Cmax [10, 13] was 3807 ± 144 ng/mL and the “MRT(0–t)” value [10, 13] was 4.341 ± 0.9 h. For the same compound, the “MRT(0–∞)” value [10, 13] was 5.81 ± 1.141 h, the “V (apparent volume of distribution)” value [10, 13] was 3.207 ± 1.638 L/kg and the t1/2 [10, 13] was 0.258 ± 0.027 h. The “maximum plasma drug concentration” value [10] was 3.81 µg/mL.

With PAMAM–CPT–Cy7 [PCC] the “particle size (DLS)” value [7] was 17.6 nm, the CPT release rate [11] was “slightly increased release rate” and the “cellular uptake in MCTS” value [1] was “obviously stronger cellular uptake than the MPCC conjugate”. For the same compound, the subcellular localization [2] was “accumulated in the nuclei of the HepG2 cells”, the S phase percentage [3] was 34.7% and the “fluorescence in tumor sites” value [9] was “slight fluorescence”. For the same compound, the “AUC(0–t)” value [10, 13] was 3594 ± 665 ng·h/mL, the “AUC(0–∞)” value [10, 13] was 4038 ± 505 ng·h/mL and the CL [10, 13] was 6.27 ± 0.767 mL/min/kg. The Cmax [10, 13] was 2530 ± 330 ng/mL, the “MRT(0–t)” value [10, 13] was 5.042 ± 0.225 h and the “MRT(0–∞)” value [10, 13] was 9.566 ± 6.991 h. For the same compound, the “V (apparent volume of distribution)” value [10, 13] was 5.104 ± 3.531 L/kg, the t1/2 [10, 13] was 0.398 ± 0.045 h and the “maximum plasma drug concentration” value [10] was 2.53 µg/mL. The “H&E histology of liver and spleen” value [12] was “significant hepatotoxicity and spleen toxicity”.

With CC[C@@]1(O)C(=O)OCc2c1cc1n(c2=O)Cc2cc3ccccc3nc2-1 [CPT, camptothecin] the subcellular localization [2] was “hardly observed in the cells”, the S phase percentage [3] was 27.49% and the apoptosis induction effect [4] was “highest apoptosis induction effect”. The AUC(0-inf) [10, 14] was 753 ± 92 ng·h/mL, the AUC(0-t) [10, 14] was 748 ± 92 ng·h/mL and the Tmax [10, 14] was 1.98 min. For the same compound, the clearance [10, 14] was 33.6 mL/min/kg, the half-life [10, 14] was 9.9 ± 8.04 min and the Cmax ([10]; rat, plasma, iv, 1.5 mg/kg, 1.5 mg CPT/kg i.v., two-compartment model, read-out: Cmax) was 917 ± 50 ng/mL. For the same compound, the MRT last ([10]; rat, plasma, iv, 1.5 mg/kg, 1.5 mg CPT/kg i.v., two-compartment model, read-out: MRT(0–t)) was 2.4 ± 0.288 h, the MRT inf ([10]; rat, plasma, iv, 1.5 mg/kg, 1.5 mg CPT/kg i.v., two-compartment model, read-out: MRT(0–∞)) was 2.59 ± 0.291 h and the Vd ([10]; rat, plasma, iv, 1.5 mg/kg, 1.5 mg CPT/kg i.v., two-compartment model, read-out: V (apparent volume of distribution)) was 10.6 ± 1.18 L/kg. The “maximum plasma drug concentration” value [10] was 0.92 µg/mL, the body weight change ([12]; 1 mg/kg CPT i.v. on days 0, 2, 4, 6, 8, 10) was “smallest increase” and the “H&E histology of liver and spleen” value [12] was “significant hepatotoxicity and spleen toxicity”.
